Assays:
[1] = tested on: hepatocytes from aged rats; details: triphenylphosphonium alone
Experimental: Menadione treatment alone served as the positive control. Viability in untreated hepatocytes also was measured over two hours.

[2] = Menadione toxicity to hepatocytes from young and old rats (percent viability, LC50); format: cell-based, rat; details: rat
Source text: (§1) Hepatocytes isolated from an old rat have 60% less mitochondrial GSH than that seen in young adult animals. In this example, menadione was used as a redox cycler, to stress mitochondria in hepatocytes, as GSH-dependent mechanisms can be involved its detoxification. […] The increased vulnerability to menadione has been linked to the loss of GSH resulting from the decline in GSH synthesis capacity.
(§2) Menadione treatment alone served as the positive control.

hepatocytes = assay: as above; format: cell-based, rat
Source text: as §1, §2

mice = assay: Effect of mitoGSH in animals: i.p. injection of TPP-GSSG, 48 hour observation, liver chemistry profile; format: in vivo; details: 3.8 mg/kg i.p.
Experimental: Three seven-month-old female non-transgenic mice (approximately 30 g each) were injected i.p. with 3.8 mg/kg TPP-GSSG in 100 μL/mouse. TPP-GSSG was initially solubilized in DMF and later diluted in millipure water to 5.3% (v/v) dimethylformamide for injection. […] All mice gained weight (0.1 g-2.3 g) over the 48 hour period. Blood was collected via brachial cut, spun down to collect plasma and then delivered to OSU Veterinary Diagnostic Laboratory for a small animal liver chemistry profile.

cells = assay: Oxygen consumption rate (OCR) after 3HP-dependent GSH loss (FIG. 6); format: cell-based

Q: With Triphenylphosphonium as the compound, how does the “effect on hepatocyte viability” value [1] read?
A: The value was “did not affect viability”.

Q: Which results are given for `CC1=CC(=O)c2ccccc2C1=O` [menadione]?
A: CC50 ([2]; isolated hepatocytes from old rats, hepatocytes from old rats): 300 µM; CC50 ([2]; isolated hepatocytes from young rats, hepatocytes from young rats): ~500 µM; CC50 (hepatocytes; hepatocytes from old rats): 232 µM; CC50 (hepatocytes; hepatocytes from young rats): 401 µM

Q: Which “health and activity of mice” value (mice; 48 hours, female non-transgenic mice) does the source give for “Triphenylphosphonium glutathione disulfide tetraethyl ester [TPP-GSSG]” here?
A: The value was “no detrimental effects observed”.

Q: What about the “small animal liver chemistry profile (plasma)” value (mice; after 48 hours) of the same compound?
A: The value was “No liver damage or abnormalities were detected”.

Q: With `C=CC(O)CC(=O)O` (stereo not drawn) [3HP, 3-hydroxy-4-pentenoate] as the compound, how does the “basal respiration, ATP turnover, proton leak, non-mitochondrial respiration (OCR)” value (cells; 3HP-dependent GSH loss) read?
A: The value was “does not alter”.

Q: What about the “respiratory capacity (OCR)” value (cells; higher levels of 3HP treatment) of the same compound?
A: The value was “increasingly lost”.

From patent publication US20250282817A1, “COMPOUNDS FOR DELIVERING GLUTATHIONE TO A TARGET AND METHODS OF MAKING AND USING THE SAME” (priority 2016, published 2025)
